Data on eleven molecules can be found in patent publication US11739074B2, “Ras inhibitors” (Revolution Medicines, Inc., priority 2019, dated 2023).

Common to all, as to assay type: cell-based
Assay [1] has as its system AsPC-1 (K-Ras G12D). The experiment in a line: Potency assay: pERK in AsPC-1 cells. The settings on record: Homo sapiens.
A further assay deals with NCI-H358 (K-Ras G12C). Briefly: CellTiter-Glo cell viability assay, H358. To be noted: Homo sapiens, NCI-H358, 120 h. In a few lines: (§1)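 Test compounds were dispensed directly onto seeded cells, and on day 5 plates were brought to room temperature for about 30 minutes before CellTiter-Glo luminescence was read. Signals were expressed as percent of the mean DMSO control and fitted with a four-parameter logistic model.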
(In general: Cellular ATP, detected with luciferase, serves as a proxy for viable cell number.)

Assay [2] relates to AsPC-1 (K-Ras G12D). Briefly: CellTiter-Glo cell viability assay, AsPC-1. To be noted: Homo sapiens, ASPC1, 120 h. In a few lines:
as §1

Where [3] appears, read: ASPC1, read-out: pERK EC50 (AsPC-1 KRAS G12D).
Where [4] appears, read: read-out: H358 Cell Viability IC50, NCI-H358, K-Ras G12C, 5-day treatment.
Where [5] appears, read: read-out: AsPC-1 Cell Viability IC50, AsPC-1, K-Ras G12D, 5-day treatment.
[6] abbreviates: ASPC1, AsPC-1 cells, K-Ras G12D, read-out: pERK EC50 (AsPC-1 KRAS G12D).
Setting [7] is: NCI-H358, K-Ras G12C, 5-day treatment, read-out: H358 Cell Viability IC50.
Where [8] appears, read: AsPC-1, K-Ras G12D, 5-day treatment, read-out: AsPC-1 Cell Viability IC50.

Structures are written as SMILES. Like-named read-outs stand apart in the source and are kept apart here.

One may read the EC50 as the midpoint of the concentration-response curve. What is called IC50 is the concentration at which inhibition is half-maximal. For the molecule `CCn1c(-c2cccnc2[C@H](C)OC)c2c3cc(ccc31)-c1cc(O)cc(c1)C[C@H](NC(=O)[C@H](C(C)C)N(C)C(=O)CN(C)C(=O)[C@H]1CN1Cc1ccccc1F)C(=O)N1CCC[C@H](N1)C(=O)OCC(C)(C)C2` (stereo partly drawn) [Compound 155], the 50% effective concentration (EC50) in the assay with AsPC-1 (K-Ras G12D) [1] (setting [3]) was less than 5 µM. Besides, the figures for the IC50 with NCI-H358 (K-Ras G12C) (setting [4]) and in the assay on AsPC-1 (K-Ras G12D) [2] (setting [5]) were less than 0.01 µM and 0.1 to 1 µM, respectively.

As for `CCn1c(-c2cccnc2[C@H](C)OC)c2c3cc(ccc31)-c1cc(O)cc(c1)C[C@H](NC(=O)[C@H](C(C)C)N(C)C(=O)CN(C)C(=O)[C@H]1CN1)C(=O)N1CCC[C@H](N1)C(=O)OCC(C)(C)C2` [Compound 42A], in the assay on AsPC-1 (K-Ras G12D) [1] (setting [3]), the EC50 was less than 5 µM. Besides, the concentration for half-maximal inhibition (IC50) with NCI-H358 (K-Ras G12C) (setting [4]) is less than 0.01 µM; in the assay on AsPC-1 (K-Ras G12D) [2] (setting [5]), 0.1 to 1 µM.

On to `CCn1c(-c2cccnc2[C@H](C)OC)c2c3cc(ccc31)-c1cc(O)cc(c1)C[C@H](NC(=O)[C@H](C(C)C)N(C)C(=O)[C@H]1CCCN(C(=O)[C@H]3CN3)C1)C(=O)N1CCC[C@H](N1)C(=O)OCC(C)(C)C2` [Compound 165], for which, in the assay with AsPC-1 (K-Ras G12D) [1] (setting [6]), the EC50 was less than 5 µM. For the same molecule, the results for the half-inhibitory concentration (IC50) in the assay with NCI-H358 (K-Ras G12C) (setting [7]) and with AsPC-1 (K-Ras G12D) [2] (setting [8]) were less than 0.01 µM and 1 to 10 µM, respectively.

In the case of `CCn1c(-c2cnccc2COC)c2c3cc(ccc31)-c1cc(O)cc(c1)C[C@H](NC(=O)[C@H](C(C)C)N(C)C(=O)CN(C)C(=O)[C@@H]1N[C@@H]1C(=O)OC)C(=O)N1CCC[C@H](N1)C(=O)OCC(C)(C)C2` [Example 49, methyl (2S,3R)-3-((2-(((2S)-1-(((6^3S,4S)-1^1-ethyl-2^5-hydroxy-1^2-(4-(methoxymethyl)pyridin-3-yl)-10,10-dimethyl-5,7-dioxo-6^1,6^2,6^3,6^4,6^5,6^6-hexahydro-1^1H-8-oxa-1(5,3)-indola-6(1,3)-pyridazina-2(1,3)-benzenacycloundecaphane-4-yl)amino)-3-methyl-1-oxobutan-2-yl)(methyl)amino)-2-oxoethyl)(methyl)carbamoyl)aziridine-2-carboxylate], in the assay with AsPC-1 (K-Ras G12D) [1] (setting [3]), the EC50 is less than 5 µM. Also, the 50% inhibitory concentration (IC50) in the assay with NCI-H358 (K-Ras G12C) (setting [4]) and with AsPC-1 (K-Ras G12D) [2] (setting [5]) was 1 to 10 µM each time.

Regarding `CCn1c(-c2cccnc2[C@H](C)OC)c2c3cc(ccc31)-c1cc(O)cc(c1)C[C@H](NC(=O)[C@H](C(C)C)N(C)C(=O)CN(C)C(=O)[C@@H]1CN1CCCC#N)C(=O)N1CCC[C@H](N1)C(=O)OCC(C)(C)C2` (stereo partly drawn) [Compound 274], the EC50 in the assay with AsPC-1 (K-Ras G12D) [1] (setting [3]) was less than 5 µM. Also, the IC50 in the assay on NCI-H358 (K-Ras G12C) (setting [4]) was less than 0.01 µM; in the assay with AsPC-1 (K-Ras G12D) [2] (setting [5]), 0.1 to 1 µM.

`CCn1c(-c2cccnc2[C@H](C)OC)c2c3cc(ccc31)-c1cc(O)cc(c1)C[C@H](NC(=O)[C@H](C(C)C)N(C)C(=O)CNC(=O)[C@@H]1N[C@@H]1C1CC1)C(=O)N1CCC[C@H](N1)C(=O)OCC(C)(C)C2` [Compound 141]: the EC50 in the assay with AsPC-1 (K-Ras G12D) [1] (setting [3]) was less than 5 µM. For the same molecule, the concentration for half-maximal inhibition (IC50) in the assay on NCI-H358 (K-Ras G12C) (setting [4]) and in the assay on AsPC-1 (K-Ras G12D) [2] (setting [5]) was 0.1 to 1 µM each time.

With `CCn1c(-c2cnccc2COC)c2c3cc(ccc31)-c1cc(O)cc(c1)C[C@H](NC(=O)[C@H](C(C)C)N(C)C(=O)CN(C)C(=O)[C@H]1N[C@@H]1c1ccccc1)C(=O)N1CCC[C@H](N1)C(=O)OCC(C)(C)C2` [Compound 12], in the assay with AsPC-1 (K-Ras G12D) [1] (setting [3]), the concentration giving a half-maximal response (EC50) was less than 5 µM. Also, the IC50 with NCI-H358 (K-Ras G12C) (setting [4]) and with AsPC-1 (K-Ras G12D) [2] (setting [5]) was 0.1 to 1 µM each time.

With `CCn1c(-c2cccnc2[C@H](C)OC)c2c3cc(ccc31)-c1cccc(c1)C[C@H](NC(=O)[C@H](C(C)C)N(C)C(=O)[C@H]1C[C@H](N=C=NCc3ccccc3OC)C1)C(=O)N1CCC[C@H](N1)C(=O)OCC(C)(C)C2` [Compound 77], the half-maximal effective concentration (EC50) in the assay with AsPC-1 (K-Ras G12D) [1] (setting [6]) is less than 5 µM. In addition, the IC50 in the assay with NCI-H358 (K-Ras G12C) (setting [7]) and in the assay on AsPC-1 (K-Ras G12D) [2] (setting [8]) was 0.1 to 1 µM in each case.

On to `CCn1c(-c2cccnc2[C@H](C)OC)c2c3cc(ccc31)-c1cc(O)cc(c1)C[C@H](NC(=O)[C@H](C(C)C)N(C)C(=O)CN(C)C(=O)C1CN1CCOC)C(=O)N1CCC[C@H](N1)C(=O)OCC(C)(C)C2` (stereo partly drawn) [Compound 90], for which the EC50 in the assay with AsPC-1 (K-Ras G12D) [1] (setting [3]) was less than 5 µM. Besides, the IC50 in the assay on NCI-H358 (K-Ras G12C) (setting [4]) is less than 0.01 µM; with AsPC-1 (K-Ras G12D) [2] (setting [5]), 0.1 to 1 µM.

For the molecule `CCn1c(-c2cccnc2[C@H](C)OC)c2c3cc(ccc31)-c1cc(O)cc(c1)C[C@H](NC(=O)[C@H](C(C)C)N(C)C(=O)CN(C)C(=O)[C@@]1(C)CN1)C(=O)N1CCC[C@H](N1)C(=O)OCC(C)(C)C2` [Compound 256], in the assay on AsPC-1 (K-Ras G12D) [1] (setting [3]), the EC50 is less than 5 µM. In addition, the results for the IC50 in the assay on NCI-H358 (K-Ras G12C) (setting [4]) and with AsPC-1 (K-Ras G12D) [2] (setting [5]) were 0.01 to 0.1 µM and 0.1 to 1 µM, respectively.

For `CCn1c(-c2cccnc2[C@H](C)OC)c2c3cc(ccc31)-c1cc(O)cc(c1)C[C@H](NC(=O)[C@H](C(C)C)N(C)C(=O)CN(C)C(=O)[C@H]1CN1CCCOC(C)=O)C(=O)N1CCC[C@H](N1)C(=O)OCC(C)(C)C2` (stereo partly drawn) [Compound 266], the EC50 in the assay with AsPC-1 (K-Ras G12D) [1] (setting [3]) was less than 5 µM. For the same molecule, the 50% inhibitory concentration (IC50) with NCI-H358 (K-Ras G12C) (setting [4]) is less than 0.01 µM; with AsPC-1 (K-Ras G12D) [2] (setting [5]), 0.1 to 1 µM.
